Assay results as given in ChEMBL document CHEMBL1201862, “PubChem BioAssay data set” (2004).
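1) Cells in 96-well plates. 2) Compound, 48 h, 5 concentrations. 3) Linear interpolation between surrounding doses. 4) Unreached endpoint = highest concentration. At the GI50, growth is halved.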 Calls of active or inactive are those of the source. Cut-off read from the data, not from the text of the source: active = GI50 up to about 1.1 µM and inactive = higher.

What was measured:
Test in all cases: inhibition of tumour cell growth, NCI panel, 48 h
EKVX = test system: EKVX
K562 = test system: K562
Malme-3M = test system: Malme-3M
NCI-H226 = test system: NCI-H226
HOP-92 = test system: HOP-92
UACC-62 = test system: UACC-62
OVCAR-8 = test system: OVCAR-8
OVCAR-4 = test system: OVCAR-4
SF-539 = test system: SF-539
SN12C = test system: SN12C
UACC-257 = test system: UACC-257
NCI-H522 = test system: NCI-H522
HCT-116 = test system: HCT-116
HOP-62 = test system: HOP-62
M14 = test system: M14
OVCAR-5 = test system: OVCAR-5
CAKI-1 = test system: CAKI-1

Row | Compound | GI50 (EKVX) | GI50 (K562) | GI50 (Malme-3M) | GI50 (NCI-H226) | GI50 (HOP-92) | GI50 (UACC-62) | GI50 (OVCAR-8) | GI50 (OVCAR-4) | GI50 (SF-539) | GI50 (SN12C) | GI50 (UACC-257) | GI50 (NCI-H522) | GI50 (HCT-116) | GI50 (HOP-62) | GI50 (M14) | GI50 (OVCAR-5) | GI50 (CAKI-1)
1 | COc1ccc(OC(=O)CC2Cc3cc(OC)c(OC)c(OC)c3-c3ccc(SC)c(=O)cc32)cc1 (stereo not given) | > 28.7 µM (inactive) | 0.0805 µM (active) | 0.383 µM (active) | 0.216 µM (active) | 0.467 µM (active) | 0.232 µM (active) | 0.27 µM (active) | 11.7 µM (inactive) | 0.114 µM (active) | 0.3 µM (active) | 0.273 µM (active) | 0.2 µM (active) | 0.156 µM (active) | 0.183 µM (active) | 0.34 µM (active) | – | –
2 | O=C(Nc1cc([N+](=O)[O-])cc([N+](=O)[O-])c1)OC1C2CCC1C1OC1C2 (stereo not given) | > 50 µM (inactive) | > 50 µM (inactive) | 22.9 µM (inactive) | – | > 50 µM (inactive) | > 50 µM (inactive) | > 50 µM (inactive) | > 50 µM (inactive) | > 50 µM (inactive) | – | 32.4 µM (inactive) | 29.1 µM (inactive) | 35.8 µM (inactive) | > 50 µM (inactive) | > 50 µM (inactive) | > 50 µM (inactive) | –
3 | CCOC(=O)Cc1ccc2c(c1O)C(=O)c1c(ccc(CC(=O)OCC)c1O)C2=O | > 100 µM (inactive) | > 100 µM (inactive) | 30.1 µM (inactive) | 43.5 µM (inactive) | > 100 µM (inactive) | > 100 µM (inactive) | > 100 µM (inactive) | – | > 100 µM (inactive) | > 100 µM (inactive) | > 100 µM (inactive) | > 100 µM (inactive) | > 100 µM (inactive) | > 100 µM (inactive) | > 100 µM (inactive) | > 100 µM (inactive) | –
4 | CCCCCCCCCCCCCCCCCC(=O)OCC(CN(C)CCN(C)C)OC(=O)CCCCCCCCCCCCCCCCC (stereo not given) | > 100 µM (inactive) | 15.8 µM (inactive) | > 100 µM (inactive) | > 100 µM (inactive) | > 100 µM (inactive) | > 100 µM (inactive) | 72.6 µM (inactive) | > 100 µM (inactive) | – | > 100 µM (inactive) | > 100 µM (inactive) | > 100 µM (inactive) | 55.2 µM (inactive) | > 100 µM (inactive) | > 100 µM (inactive) | > 100 µM (inactive) | > 100 µM (inactive)
